14 molecules from patent US3985888A, “Methods of inducing sedation using certain spiroalkanone-imides” (Richardson-Merrell Inc., priority 1971, dated 1976) can be followed below.

The term LD50 denotes the dose at which mortality reaches 50%. A lower LD50 goes with a more toxic substance.

Data set [1] can be described thus: sedative / central nervous system depressant properties. The format is in vivo. The conditions noted are these: in words.
Data set [2] is described as follows: motor coordination, rotorod method. The conditions noted are these: mouse, mice; for TD50: read-out: Loss of Motor Coordination, ED50; for NOAEL: read-out: dose until which there is no significant impairment of motor coordination (rotorod). The format is in vivo. As for the experimental part: There is no significant impairment of motor coordination as determined with the rotorod method (Kinnard, W. J. and Carr, C. J., J. Pharmacol. Exptl. Therap., 121: 354 (1957)), on the other hand, until doses of 900 mg/kg, p.o. or 500-900 mg/kg i.p. have been administered.
A general note: In the rotarod test animals must keep their balance on a rotating rod.

The subject of data set [3] is mice. As to the kind of experiment: spontaneous locomotor activity in the photocell chamber. Type of data set: in vivo. To be noted: for ED50: Mus musculus, read-out: Spontaneous Locomotor Activity: Depressant Dose 50% (dose reducing activity to 50 percent of control).
Data set [4] has as its system mice. As to the kind of experiment: protection against maximal electroshock. The format is in vivo. The conditions noted are these: Mus musculus, read-out: Anticonvulsant Protective Dose, 50% (Maximum Electroshock).
A short description of the next data set: acute LD50. The conditions noted are these: mouse, in vivo, mice.
The subject of data set [5] is mice. Briefly: prolongation of loss of the righting reflex produced by barbital or hexobarbital. The format is in vivo. The conditions noted are these: i.p., appropriate doses of barbital or hexobarbital.

“Also recorded” adds a separate entry of the source. Like-named read-outs stand apart in the source and are kept apart here.

`CCN1C(=O)CCC2(CCC(=O)c3ccccc32)C1=O` (centres unmarked) [Example 6, 1'-ethyl-2,3-dihydrospiro-[naphthalene-1(4H),3'-piperidine]-2',4,6'-trione]: in data set [1], the sedative properties entry is given as “has sedative properties”.

As to `COc1cc2c(cc1OC)C1(CCC2=O)CCC(=O)N(C)C1=O` (centres unmarked) [Example 12, 2,3-dihydro-6,7-dimethoxy-1'-methylspiro-[naphthalene-1(4H),3'-piperidine]-2',4,6'-trione], the sedative properties result in data set [1] is reported as “has sedative properties”.

In the case of `O=C1CCC2(CCC(=O)c3cc(Cl)ccc32)C(=O)N1` (centres unmarked) [Example 17, 6-chloro-2,3-dihydrospiro[naphthalene-1(4H),3'-piperidine]-2',4,6'-trione], the sedative properties result in data set [1] was “has sedative properties”.

Take `CN1C(=O)CCC2(CCC(=O)c3cc(Cl)ccc32)C1=O` (centres unmarked) [Example 18, 6-chloro-2,3-dihydro-1'-methylspiro[naphthalene-1(4H),3'-piperidine]-2',4,6'-trione]: the sedative properties result in data set [1] is on record as “has sedative properties; also recorded: particularly useful as a sedative”. For the same molecule, the TD50 in data set [2] (oral) was found to be 285 mg/kg. Also, in the data set on mice [3] (po), the ED50 came out at 13 mg/kg. Besides, the “activity compared with the known compound (Example 1)” value in the data set with mice [3] (in words, as shown in the table) is given as “substantially greater activity”.

With `O=C1CC2(CCC(=O)c3ccccc32)C(=O)N1` (centres unmarked) [Example 14, 2,3-dihydrospiro[naphthalene-1(4H),3'-pyrrolidine]-2',4,5'-trione], the sedative properties result in data set [1] was “has sedative properties”.

In the case of `O=C1CCC2(CC(=O)c3ccccc32)C(=O)N1` (centres unmarked) [Example 13, spiro-[indane-1,3'-piperidine]-2,3,6'-trione], the sedative properties result in data set [1] is “has sedative properties”.

Regarding `Cc1ccc2c(c1)C(=O)CCC21CCC(=O)NC1=O` (centres unmarked) [Example 9, 2,3-dihydro-6-methylspiro[naphthalene-1(4H),3'-piperidine]-2',4,6'-trione], in data set [1], the sedative properties entry was “has sedative properties”.

Consider `O=C1CCC2(CCC(=O)c3cc([N+](=O)[O-])ccc32)C(=O)N1` (centres unmarked) [Example 19, 2,3-dihydro-6-nitrospiro-[naphthalene-1(4H),3'-piperidine]-2',4,6'-trione], for which the sedative properties entry in data set [1] is “has sedative properties”.

`O=C1CCC2(CCC(=O)c3ccccc32)C(=O)N1` (centres unmarked) [Example 1, 2,3-dihydrospiro-[naphthalene-1(4H),3'-piperidine]-2',4,6'-trione]: the “central nervous system depressant properties” value in data set [1] is recorded as “central nervous system depressant properties”. Also, the TD50 in data set [2] (ip, i.p.) was 500 to 900 mg/kg; in data set [2] (oral) it was 900 mg/kg. In addition, the NOAEL in data set [2] (ip, i.p.) was 500 to 900 mg/kg; in data set [2] (po, p.o.), not below 900 mg/kg. In addition, the ED50 in the data set on mice [3] (ip) is 50 to 60 mg/kg; with mice [3] (po), 150 mg/kg; with mice [4] (ip), 160 to 170 mg/kg; in the data set with mice [4] (po), 120 mg/kg. Besides, the “Spontaneous Locomotor Activity: Depressant Dose 50% (dose reducing activity to 50 percent of control)” value in the data set on mice [3] (i.p.) fell in the range of 50 to 60 mg/kg. The 50% lethal dose (LD50) was more than 2000 mg/kg in “acute LD50” (ip, intraperitoneally) and more than 2000 mg/kg in the data set “acute LD50” (po, orally). The “dose that significantly prolongs loss of the righting reflex produced by barbital or hexobarbital” value in the data set on mice [5] was “about 300 mg/kg”.

As for `Cc1cccc2c1C1(CCC(=O)NC1=O)CCC2=O` (centres unmarked) [Example 15, 2,3-dihydro-8-methylspiro-[naphthalene-1(4H),3'-piperidine]-2',4,6' -trione], the sedative properties entry in data set [1] is reported as “has sedative properties”.

For the molecule `COc1ccc2c(c1)C(=O)CCC21CCC(=O)N(C)C1=O` (centres unmarked) [Example 8, 2,3-dihydro-6-methoxy-1'-methylspiro[naphthalene-1(4H),3'-piperidine]-2',4,6'-trione], the sedative properties result in data set [1] was “has sedative properties”.

Take `Cc1cccc2c1C1(CCC2=O)CCC(=O)N(C)C1=O` (centres unmarked) [Example 16, 2,3-dihydro-1',8-dimethylspiro-[naphthalene-1(4H),3'-piperidine]-2',4,6'-trione]: the sedative properties entry in data set [1] is “has sedative properties”.

As to `COc1cc2c(cc1OC)C1(CCC(=O)NC1=O)CCC2=O` (centres unmarked) [Example 11, 2,3-dihydro-6,7-dimethoxyspiro-[naphthalene-1(4H),3'-piperidine]-2',4,6'-trione], the sedative properties result in data set [1] is “has sedative properties”.

On to `Cc1ccc2c(c1)C(=O)CCC21CCC(=O)N(C)C1=O` (centres unmarked) [Example 10, 1',6-dimethyl-2,3-dihydrospiro-[naphthalene-1(4H),3'-piperidine]-2',4,6'-trione], for which the sedative properties result in data set [1] is given as “has sedative properties”.
